How the values were obtained:
Herpes Labialis = conditions: 1% concentration; application after the prodromal phase; cited from earlier work
[1] = Percutaneous absorption of CTC-96 from Dermal ointment Formulation, finite dose technique, Franz Diffusion Cells; format: in vitro ADME, human; conditions: 48 hours; for Mass in Dermis / Mass in Receptor Solution / Percent of Applied Dose in Dermis / Percent of Applied Dose in Epidermis / Percent of Applied Dose in Receptor Solution: single application; for Percent of Applied Dose in Epidermis / Percent of Applied Dose in Receptor Solution / Mass in Epidermis / Mass in Surface wash / Mass, Total Recovery / Percent of Applied Dose in Surfacewash / Percent of Applied Dose, Total Recovery / Mass in Stratum Corneum / Percent of Applied Dose in Stratum Corneum: Mean ± SE; for Percent of Applied Dose in Receptor Solution: n = 3 donors; for Mass in Stratum Corneum / Percent of Applied Dose in Stratum Corneum: tape strip samples
Method: The percutaneous absorption of Doxovir-L® (CTC-96) was evaluated by mixing CTC-96 at two concentrations (10 mg/g and 1 mg/g) to homogeneity with a Dermal ointment Formulation (petrolatum 10% by weight, camphor 0.92% by weight, menthol 0.5% by weight, methyl salicylate 0.26% by weight, eucalyptus oil 0.30% by weight) and was determined in vitro, using the human cadaver skin model using the finite dose technique and Franz Diffusion Cells (12;13). Placebo consisted of the drug formulation without drug. The amount of Dermal ointment that is applied at each treatment was determined is shown in the following table (TABLE 1): The percutaneous absorption of Doxovir-L® (CTC-96) was determined is shown in the following table (TABLE 2 & TABLE 3): […]

HSV-1 = assay: Anti-viral activity of CTC-96 extracted from Dermal Ointment Formulation; format: cell-based; conditions: extract diluted to 2.5 μg/ml
Text: FIG. 1 is a graphical representation showing the anti-viral activity of CTC-96 extracted from the dermal formulation.
CTC-96 was mixed to homogeneity with a Dermal Ointment Formulation (petrolatum 10% by weight, camphor 0.92% by weight, menthol 0.5% by weight, methyl salicylate 0.26% by weight, eucalyptus oil 0.30% by weight).

Nc1nc2c(ncn2CCC(CO)CO)c(=O)[nH]1 [penciclovir]
reduction in symptoms and time to healing (Herpes Labialis): 20-30%

CC(/C=C(/C)[O-])=NCCN=C(C)/C=C(/C)[O-].Cc1ncc[nH]1.Cc1ncc[nH]1.[Br-].[Co+3] [CTC-96]
Mass in Dermis ([1]; drug concentration 1 mg/g): 0 μg/cm2
Mass in Receptor Solution ([1]; drug concentration 1 mg/g): 0 μg/cm2
Percent of Applied Dose in Dermis ([1]; drug concentration 1 mg/g): 0% of Applied Dose
Percent of Applied Dose in Epidermis ([1]; drug concentration 1 mg/g): 2.20 ± 1.09% of Applied Dose
Percent of Applied Dose in Receptor Solution ([1]; drug concentration 1 mg/g): 0% of Applied Dose
Mass in Epidermis ([1]; drug concentration 1 mg/g): 0.11 ± 0.05 μg/cm2
Mass in Surface wash ([1]; drug concentration 1 mg/g): 3.17 ± 0.01 μg/cm2
Mass, Total Recovery ([1]; drug concentration 1 mg/g): 4.83 ± 0.07 μg/cm2
Percent of Applied Dose in Surfacewash ([1]; drug concentration 1 mg/g): 7.41 ± 0.30% of Applied Dose
Percent of Applied Dose, Total Recovery ([1]; drug concentration 1 mg/g): 9.67 ± 1.34% of Applied Dose
Mass in Stratum Corneum ([1]; drug concentration 1 mg/g): 0.03 ± 0.00 μg/cm2
Percent of Applied Dose in Stratum Corneum ([1]; drug concentration 1 mg/g): 0.06 ± 0.06% of Applied Dose
Mass in Dermis ([1]; drug concentration 10 mg/g): 0 μg/cm2
Mass in Receptor Solution ([1]; drug concentration 10 mg/g): 0 μg/cm2
Percent of Applied Dose in Dermis ([1]; drug concentration 10 mg/g): 0% of Applied Dose
Percent of Applied Dose in Epidermis ([1]; drug concentration 10 mg/g): 3.63 ± 0.58% of Applied Dose
Percent of Applied Dose in Receptor Solution ([1]; drug concentration 10 mg/g): 0% of Applied Dose
Mass in Epidermis ([1]; drug concentration 10 mg/g): 1.81 ± 0.29 μg/cm2
Mass in Surface wash ([1]; drug concentration 10 mg/g): 5.41 ± 1.90 μg/cm2
Mass, Total Recovery ([1]; drug concentration 10 mg/g): 7.86 ± 1.56 μg/cm2
Percent of Applied Dose in Surfacewash ([1]; drug concentration 10 mg/g): 10.81 ± 3.79% of Applied Dose
Percent of Applied Dose, Total Recovery ([1]; drug concentration 10 mg/g): 15.72 ± 3.12% of Applied Dose
Mass in Stratum Corneum ([1]; drug concentration 10 mg/g): 0.64 ± 0.33 μg/cm2
Percent of Applied Dose in Stratum Corneum ([1]; drug concentration 10 mg/g): 1.29 ± 0.67% of Applied Dose
% Inhibition Mean ± SD (HSV-1; incubated at 4° C., 3 mo): 91.5 ± 0.5%
% Inhibition Mean ± SD (HSV-1; incubated at 4° C., 6 mo): 91.5 ± 3.4%
% Inhibition Mean ± SD (HSV-1; incubated at 4° C., time 0): 91.8 ± 1.7%
% Inhibition Mean ± SD (HSV-1; incubated at 40° C., 3 mo): 90.1 ± 0.8%
% Inhibition Mean ± SD (HSV-1; incubated at 40° C., 6 mo): 92.1 ± 1.0%
% Inhibition Mean ± SD (HSV-1; incubated at 40° C., time 0): 88.8 ± 2.7%
